We go through 86 compounds from a melting point compilation (Tetko et al.).

Where only a bound is given, the exact number is not on record here.

`Cc1onc(-c2ccncc2)c1C(=O)O`: the melting point is 249 to 251 °C.
For the compound `O=C1CN(C(=O)CCl)CCN1`, the melting point fell in the range of 124 to 126 °C.
`CCOc1ccc2ncc(C#N)c(Cl)c2c1` displayed a melting point of 125 to 127 °C.
Next, `O=C(O)c1cc2cc(F)ccc2oc1=O`: 185 to 187 °C; `O=C(O)CCc1ccc(S(=O)(=O)N2CCCCCC2)cc1`: 122 to 124 °C; `COc1ccc(-c2nc(CC(=O)O)cs2)cc1`: 109 to 111 °C.
For the compound `COC(=O)c1cc(=O)c2cc(Cl)ccc2[nH]1`, the melting point lay in the range of 179 to 181 °C.
The figure for `Brc1ccc(Oc2ncccn2)cc1` is 114 to 116 °C; for `CCn1c(CCl)nc2cc(S(=O)(=O)N3CCCCC3)ccc21` it is 234 to 236 °C.
In the case of `CC(C)S(=O)(=O)c1ccc(C(=O)O)cc1`, the melting point is 186 to 188 °C.
The figure for `O=C1CCc2cc(F)ccc2N1` is 134 to 136 °C.
The figure for `O=c1cc(O)nc(S)n1-c1ccc(Cl)cc1` is 188 to 190 °C.
Compound `Cc1cc(C(=O)O)c(C)n1Cc1ccccn1` registered a melting point of 151 to 153 °C.
In turn, `COCCOc1ccc(Cl)cc1S(N)(=O)=O` came in with a melting point of 124 to 126 °C.
For `O=C(CCl)Nc1cc(-n2nnnc2C2CC2)ccc1F`, the melting point lay in the range of 119 to 121 °C.
Compound `O=C(O)Cc1csc(-c2c(Cl)cccc2Cl)n1` registered a melting point of 142 to 144 °C.
`O=C(O)CCc1nc2cc(Cl)ccc2s1` came in with a melting point of 145 to 147 °C.
The compound `NCCCCN1CCN(CCO)CC1` had a melting point of 90 to 92 °C.
Next, `COc1ccc(NS(C)(=O)=O)c(N)c1`: 144 to 146 °C; `Cc1ccc(NC(=O)C=NO)cc1`: 145 to 147 °C.
`CC(C)(C)OC(=O)N1CCN(CC(=O)O)C(=O)C1` displayed a melting point of 149 to 151 °C.
As to `Cn1cc(Br)cc1C(=O)O`, the melting point fell in the range of 129 to 131 °C.
Regarding `NC(=NO)c1ccc2c(c1)CCO2`, the melting point fell in the range of 215 to 217 °C.
Compound `CCN(C)S(=O)(=O)c1c(C)n[nH]c1C` registered a melting point of 61 to 63 °C.
Regarding `O=C(O)CCc1ncc(-c2ccco2)o1`, the melting point lay in the range of 140 to 142 °C.
Next, `COc1ccc(CCC(=O)Nc2ccccc2C(=O)O)cc1`: 159 to 161 °C.
Next, `Cc1oc(C(N)=O)cc1-c1csc(N)n1`: 224 to 226 °C; `CC(C)(C)OC(=O)NC(CC(=O)O)c1ccccc1` (stereo unspecified): 135 to 137 °C.
As for `Brc1ncc(-c2ccccc2)s1`, the melting point lay within 55 to 57 °C.
For the compound `Cc1nnc(-c2cccc(CN)c2)[nH]1`, the melting point was 199 to 201 °C.
The figure for `CN(C(=O)c1cccc(N)c1)c1ccccc1` is 144 to 146 °C; for `CNC(=O)c1cccc(N)c1C` it is 178 to 180 °C.
The figure for `O=C(O)CCNC(=O)Nc1ccccc1` is 173 to 175 °C; for `O=C(O)c1ccc(Cl)c(S(=O)(=O)NCC2CCCO2)c1` (stereo unspecified) it is 207 to 209 °C; for `CC1CCc2c(sc3nc(CC#N)[nH]c(=O)c23)C1` (stereo unspecified) it is 266 to 268 °C.
Regarding `O=[N+]([O-])c1ccc(Cl)cc1CBr`, the melting point lay in the range of 61 to 63 °C.
Compound `Cc1cc(C)n(-c2ccccc2N)n1` displayed a melting point of 81 to 83 °C.
Next, `CCOC(=O)/C=C1/SCC(=O)N1Cc1cc(C(C)=O)ccc1OCC`: 175 to 177 °C; `Cc1nc(C(=O)O)c(C)s1`: 172 to 174 °C; `CC(C)(C)c1ccc(C(=O)Nc2ccc(O)cc2)cc1`: 196 to 198 °C.
For the compound `Cc1cc(Br)cc(C)c1NC(=O)CCCCl`, the melting point is 139 to 141 °C.
The figure for `NNC(=O)CNc1ccccc1` is 126 to 128 °C; for `S=C1NC2CCCCC2N1` (stereo unspecified) it is 134 to 136 °C; for `O=C(O)Cn1nnc2ccccc2c1=O` it is 145 to 150 °C.
Next, `COc1cc(Br)c2c(c1)NC(=O)C2=O`: 179 to 181 °C; `COc1ncc(Cl)c(Cl)n1`: 43 to 45 °C.
The figure for `CCC(CC)C(N)=S` is 55 to 57 °C; for `CC(=O)Nc1ncc(-c2ccc(O)cc2)s1` it is 218 to 220 °C.
In the case of `COc1ccccc1NC(=O)c1ccc(NC(=O)CCCl)cc1`, the melting point lay within 193 to 195 °C.
The figure for `NCc1cccc(N2CCOC2=O)c1` is 93 to 95 °C; for `CN(C)C(=O)CSc1ccccc1C(=O)O` it is below 17 °C.
In turn, `CSc1ccc(Cl)c(C(N)=O)c1` showed a melting point of 144 to 146 °C.
As to `COC(=O)c1ccc(Br)s1`, the melting point is 60 to 62 °C.
The compound `Cc1cccc(C(=O)CC#N)c1C` gave a melting point of 56 to 58 °C.
`O=C(O)c1cc(S(=O)(=O)N2CCOCC2)ccc1O` yielded a melting point of 234 to 236 °C.
The figure for `COC(=O)c1nc2n(n1)CCCN2` is 173 to 175 °C.
For the compound `CCOc1nc(Cl)ncc1Br`, the melting point fell in the range of 72 to 74 °C.
Take `CN(c1ccc(O)cc1)S(=O)(=O)c1ccc(F)cc1`: the melting point was in the range of 152 to 154 °C.
For `CCc1ccc(N)cc1[N+](=O)[O-]`, the melting point was 44 to 46 °C.
The figure for `NNC(=O)c1ccc(Cl)cc1O` is 209 to 211 °C.
Next, `CC(=O)Nc1cc(C)c(C)cc1[N+](=O)[O-]`: 189 to 191 °C; `O/N=C/c1c(Cl)nc(Cl)n1-c1ccccc1`: 179 to 181 °C; `O=C(NCCCc1ccccc1)c1ccccc1O`: 77 to 79 °C.
The figure for `O=C(O)c1cccc(-n2[nH]c(=O)ccc2=O)c1` is 312 to 314 °C.
`Cc1ccc(S(=O)(=O)C(C#N)c2nc3ccccc3nc2Cl)cc1` (stereo unspecified) gave a melting point of 105 to 107 °C.
For the compound `O=C(COc1ccccc1)Nc1cc(Cl)ccc1C(=O)O`, the melting point is 247 to 249 °C.
Consider `COc1cc2c(cc1OC)CC(=O)NCC2`, for which the melting point lay within 192 to 194 °C.
The figure for `CCC(C)Oc1ccc(C(=O)O)cc1` (stereo unspecified) is 118 to 120 °C; for `CCN1C(=O)C(=O)c2cc(Br)ccc21` it is 144 to 146 °C.
`CC(C)(C)OC(=O)NC1(CC(=O)O)CCC1` yielded a melting point of 126 to 128 °C.
Next, `COC(=O)c1nc2ncc3c(n2n1)C(=O)OCC3`: 197 to 199 °C; `CNCCCOc1ccc(S(C)(=O)=O)cc1`: 43 to 45 °C; `Cc1nn(Cc2ccc(Cl)cc2Cl)c(Cl)c1C(=O)O`: 227 to 229 °C.
Next, `Cc1ccc(C(=O)O)cc1S(=O)(=O)Cl`: 140 to 147 °C; `CC(C)Cc1nnc(N)s1`: 239 to 241 °C; `CCCOc1ccc2[nH]cc(C=O)c2c1`: 139 to 141 °C.
Compound `Cc1oc(C(=O)O)cc1S(=O)(=O)N(C)C` returned a melting point of 151 to 153 °C.
Regarding `CC(C)CCNC(N)=O`, the melting point was 43 to 45 °C.
In the case of `Nc1ccc(CC2CC(=O)NC2=O)cc1` (stereo unspecified), the melting point was 138 to 140 °C.
Compound `CC(=CC(=O)O)c1ccccc1OC(F)F` came in with a melting point of 69 to 71 °C.
In the case of `Cn1c(=O)[nH]cc(C(=O)O)c1=O`, the melting point was 233 to 235 °C.
Turning to `O=C(O)c1n[nH]c2ccc([N+](=O)[O-])cc12`, the melting point was in the range of 253 to 255 °C.
For `CN(C)Cc1nc(S)c2ccccc2n1`, the melting point was in the range of 131 to 133 °C.
Next, `Cc1cc(C)c(NC(=O)C(C)Cl)c(Cl)c1` (stereo unspecified): 157 to 159 °C; `O=C(O)c1cc(-c2ccccc2Cl)nc2ccccc12`: 273 to 275 °C; `CCS(=O)(=O)Nc1ccccc1C(=O)O`: 145 to 147 °C.
